Each structure is given as a SMILES string.

For the test, the system named is A549/ATCC. Briefly: NCI60 one-dose screen, A549. Format: cell-based, human. The conditions noted are these: A549 cells; single concentration of 10 μM; NCI60 panel. As for the experimental part: Anti-cancer activity screening of all compounds was performed by the NCI Developmental Therapeutics Program (DTP) through their NCI60 screening initiative. Assay details can be found at the website dtp.cancer.gov/discovery_development/nci-60/methodology.htm. Information from this website is reproduced here for convenience.
As of early 2007 all compounds submitted to the NCI 60 Cell screen are tested initially at a single high dose (10^-5 M) in the full NCI 60 cell panel. Only compounds which satisfy pre-determined threshold inhibition criteria in a minimum number of cell lines will progress to the full 5-dose assay. The threshold inhibition criteria for progression to the 5-dose screen was selected to efficiently capture compounds with anti-proliferative activity based on careful analysis of historical DTP screening data. The threshold criteria may be updated as additional data becomes available.
The One-dose data will be reported as a mean graph of the percent growth of treated cells and will be similar in appearance to mean graphs from the 5-dose assay. The number reported for the One-dose assay is growth relative to the no-drug control, and relative to the time zero number of cells. This allows detection of both growth inhibition (values between 0 and 100) and lethality (values less than 0). This is the same as for the 5-dose assay, described below. For example, a value of 100 means no growth inhibition. A value of 40 would mean 60% growth inhibition. A value of 0 means no net growth over the course of the experiment. A value of −40 would mean 40% lethality. A value of −100 means all cells are dead. Information from the One-dose mean graph is available for COMPARE analysis.
The human tumor cell lines of the cancer screening panel are grown in RPMI 1640 medium containing 5% fetal bovine serum and 2 mM L-glutamine. For a typical screening experiment, cells are inoculated into 96 well microtiter plates in 100 μL at plating densities ranging from 5,000 to 40,000 cells/well depending on the doubling time of individual cell lines. After cell inoculation, the microtiter plates are incubated at 37° C., 5% CO2, 95% air and 100% relative humidity for 24 h prior to addition of experimental drugs.
After 24 h, two plates of each cell line are fixed in situ with TCA, to represent a measurement of the cell population for each cell line at the time of drug addition (Tz). Experimental drugs are solubilized in dimethyl sulfoxide at 400-fold the desired final maximum test concentration and stored frozen prior to use. At the time of drug addition, an aliquot of frozen concentrate is thawed and diluted to twice the desired final maximum test concentration with complete medium containing 50 μg/ml gentamicin. Additional four, 10-fold or ½ log serial dilutions are made to provide a total of five drug concentrations plus control. Aliquots of 100 μl of these different drug dilutions are added to the appropriate microtiter wells already containing 100 μl of medium, resulting in the required final drug concentrations.
Following drug addition, the plates are incubated for an additional 48 h at 37° C., 5% CO2, 95% air, and 100% relative humidity. For adherent cells, the assay is terminated by the addition of cold TCA. Cells are fixed in situ by the gentle addition of 50 μl of cold 50% (w/v) TCA (final concentration, 10% TCA) and incubated for 60 minutes at 4° C. The supernatant is discarded, and the plates are washed five times with tap water and air dried. Sulforhodamine B (SRB) solution (100 μl) at 0.4% (w/v) in 1% acetic acid is added to each well, and plates are incubated for 10 minutes at room temperature. After staining, unbound dye is removed by washing five times with 1% acetic acid and the plates are air dried. Bound stain is subsequently solubilized with 10 mM trizma base, and the absorbance is read on an automated plate reader at a wavelength of 515 nm. […]
As to `CC(C)C1C2=C(NCCN1C(=O)C1CCCC1)C(C)(C)N(Cc1ccccc1)C2=O` (stereo not shown) [Compound 8c], the “reduction of cell growth of A549 non-small cell lung cancer cells” value was determined as 24%.

With `CC(C)C1C2=C(NCCN1C(=O)c1ccncc1)C(C)(C)N(Cc1ccccc1)C2=O` (stereo not shown) [Compound 8e], the “reduction of cell growth of A549 non-small cell lung cancer cells” value is reported as under 5%.

Turning to `CC(C)C1C2=C(NCCN1C(=O)c1cccnc1)C(C)(C)N(Cc1ccccc1)C2=O` (stereo not shown) [Compound 8f], the “reduction of cell growth of A549 non-small cell lung cancer cells” value came out at 32%.

Consider `CC1(C)C2=C(C(=O)N1Cc1ccccc1)C(c1ccco1)N(C(=O)C1CCC1)CCN2` (stereo not shown) [Compound 8m, 7-benzyl-4-(cyclobutanecarbonyl)-5-(furan-2-yl)-8,8-dimethyl-2,3,4,5,7,8-hexahydropyrrolo[3,4-e][1,4]diazepin-6(1H)-one], for which the “reduction of cell growth of A549 non-small cell lung cancer cells” value was found to be 24%.

The values above are taken from patent publication US12252492B2, “Substituted fused pyrrolo-diazepinones and uses thereof” (Northwestern University, priority 2018, dated 2025).
